What was measured:
[1] = tested on: primary cultured cortex neurons; assay: Cell assay: fluorescent microscopy of intracellular ONOO− production after SIN-1; format: cell-based, Sprague-Dawley rats; conditions: probe 20 μM for 15 mins, then 10 and 100 μM SIN-1 for 15 mins; fluorescent microscopy (FIG. 24)
Protocol: Throughout this study, primary cultured cortex neurons were prepared from embryonic day 15 Sprague-Dawley rats. Briefly, dissociated cell suspensions were plated at a density of 2×10^6 cells/well on poly-L-lysine-coated 6-well plates (BD Biosciences, San Diego, Calif., USA) with Neurobasal/2% B27 (Gibco-BRL, Grand Island, N.Y.) containing glutamine (0.5 mM, Sigma Chemical Company, St. Louis, Mo.), penicillin (100 U/mL) and streptomycin (100 μg/mL). The cells were maintained in a humidified incubator at 37° C., in 5% CO2-95% air. On the tenth day, cultured cortical cells were used for experimentation. The primary cultured neuronal cells were incubated with the ss-6 and ss-12 at the concentration of 20 μM for 15 mins and then washed with sodium phosphate buffer (100 mM, pH 7.4) for 3 times. After that, the cells were treated with 10 and 100 μM SIN-1 (3-Morpholino-sydnonimine-HCl) for 15 mins. After washed with sodium phosphate buffer (100 mM, pH 7.4), the cells were observed under fluorescent microscopy.

[2] = Specificity of probe with different reactive oxygen species: fluorescence change with superoxide; conditions: ss-6 20 μM, phosphate buffer pH 7.4; Xanthine Oxidase then Xanthine (50 μL, 20 mM)
Protocol: (§1) Compound ss-6 obtained in Example 1 was dissolved in CH3CN to a concentration of 2 mM, and then the solution was added a 100 mM sodium phosphate buffer (pH 7.4) for dissolution to a final concentration of 20 μM. The excitation spectrum and the fluorescence spectrum of the 20 μM ss-6 solution were measured using a Perkin Elmer LS50 fluorescence spectrometer. Slit width was 5 nm for both the excitation spectrum and the fluorescence spectrum, and the photomultiplier voltage was 775 V. The measurement was carried out at the excitation wavelength of 515 nm.
(§2) Compound ss-6 obtained in Example 1 was dissolved in CH3CN to a concentration of 2 mM, and then the solution was added with a 100 mM sodium phosphate buffer (pH 7.4) for dissolution at a final concentration of 20 μM. […] The changes in fluorescence intensity before and after the treatment were measured. The fluorescence intensity was measured under the same conditions as those in Example 2. Each concentration of the fluorescence probe was 20 μM (a 100 mM sodium phosphate buffer, pH 7.4).
(§3) Compound ss-12 obtained in Example 5 was dissolved in CH3CN to a concentration of 2 mM, and then the solution was added with a 100 mM sodium phosphate buffer (pH 7.4) for dissolution at a final concentration of 20 μM. […] The changes in fluorescence intensity before and after the treatment were measured. […]

[3] = Specificity of probe with different reactive oxygen species: fluorescence change with H2O2; conditions: ss-6 20 μM, phosphate buffer pH 7.4; 10 equiv
Protocol: as §1, §2, §3

[4] = Specificity of probe with different reactive oxygen species: fluorescence change with singlet oxygen; conditions: ss-6 20 μM, phosphate buffer pH 7.4; 3-(1,4-dihydro-1,4-epidioxy-1-napthyl)propionic acid at 37° C. (50 μL, 20 mM)
Protocol: as §1, §2, §3

[5] = Specificity of probe with different reactive oxygen species: fluorescence change with ONOO−
Protocol: (§4) Compound ss-6 obtained in Example 1 was dissolved in CH3CN to a concentration of 2 mM, and then the solution was added a 100 mM sodium phosphate buffer (pH 7.4) for dissolution to a final concentration of 20 μM. The excitation spectrum and the fluorescence spectrum of the 20 μM ss-6 solution were measured using a Perkin Elmer LS50 fluorescence spectrometer. Slit width was 5 nm for both the excitation spectrum and the fluorescence spectrum, and the photomultiplier voltage was 775 V. The measurement was carried out at the excitation wavelength of 515 nm. […]
as §2, §3

[6] = Specific detection of peroxynitrite: fluorescence versus ONOO− concentration; conditions: probe 20 μM, pH 7.4, after 30 mins
Protocol: Compound ss-6 obtained in Example 1 was dissolved in CH3CN to a concentration of 2 mM, and then the solution was added with a 100 mM sodium phosphate buffer (pH 7.4) for dissolution at a final concentration of 20 μM. Then peroxynitrite was added to final concentrations of 0, 20, 60, 100, 200, 240 and 300 μM, and the fluorescence spectrum was measured after 30 mins. The fluorescence spectrum was measured under the same conditions as those in Example 2.
Compound ss-12 obtained in Example 5 was dissolved in CH3CN to a concentration of 2 mM, and then the solution was added with a 100 mM sodium phosphate buffer (pH 7.4) for dissolution at a final concentration of 20 μM. Then peroxynitrite was added to final concentrations of 0, 20, 60, 100, 200, 240 and 300 μM, and the fluorescence spectrum was measured after 30 mins. The fluorescence spectrum was measured under the same conditions as those in Example 6.

[7] = Specificity of probe with different reactive oxygen species: fluorescence change with hydroxyl radical; conditions: ss-6 20 μM, phosphate buffer pH 7.4; Fe(ClO4)2 (25 μL, 40 mM) and H2O2 (25 μL, 80 mM)
Protocol: as §1
(§5) Compound ss-6 obtained in Example 1 was dissolved in CH3CN to a concentration of 2 mM, and then the solution was added with a 100 mM sodium phosphate buffer (pH 7.4) for dissolution at a final concentration of 20 μM. 50 μL of different reactive oxygen species (10 equiv) were added independently to 5 mL of the corresponding ss-6 solution. The changes in fluorescence intensity before and after the treatment were measured. The fluorescence intensity was measured under the same conditions as those in Example 2. Each concentration of the fluorescence probe was 20 μM (a 100 mM sodium phosphate buffer, pH 7.4).

[8] = Specificity of probe with different reactive oxygen species: fluorescence change with SIN-1; conditions: ss-6 20 μM, 100 mM sodium phosphate buffer pH 7.4; 10 equiv; SIN-1 generates ONOO− slowly in buffer
Protocol: as §1, §5

[9] = Fluorescence spectrum after reaction of probe with 15 equiv ONOO−; conditions: ss-6 20 μM, 30 min, room temperature, excitation 515 nm, FIG. 9 vs FIG. 8
Protocol: as §4
Subsequently, 15 equiv of ONOO^− solution with different concentration was slowly added to a 20 μM ss-6 solution with vigorous stirring at room temperature. […] The changes in fluorescence intensity were measured after 30 min. The excitation spectrum and the fluorescence spectrum of the solution after the completion of the reaction were measured using the same conditions as described above.
Compound ss-12 obtained in Example 5 was dissolved in CH3CN to a concentration of 2 mM, and then the solution was added a 100 mM sodium phosphate buffer (pH 7.4) for dissolution at a final concentration of 20 μM. The excitation spectrum and the fluorescence spectrum of the 20 μM ss-12 solution were measured using a Perkin Elmer® LS50 fluorescence spectrometer. […]

N,N-diethyl-8-[2-methoxy-(4,4,4-trifluoro-3-oxobutyl)phenyl]-4,4-difluoro-4-bora-3a,4a-diaza-s-indacene-3,5-dicarboxamide [ss-6]
measurement of intracellular ONOO− production [1]: satisfactory results
changes in fluorescence intensity before and after the treatment, O2•− [2]: −1%
changes in fluorescence intensity before and after the treatment, H2O2 [3]: −5%
changes in fluorescence intensity before and after the treatment, 1O2 [4]: 3%
selectivity for peroxynitrite over other reactive oxygen species ([5]; probe 20 μM, phosphate buffer pH 7.4, conclusion from Tables 1 and 2): very high selectivity
changes in fluorescence intensity before and after the treatment, ONOO^− ([5]; ss-6 20 μM, 100 mM sodium phosphate buffer pH 7.4, 10 equiv ROS, excitation 515 nm): 750%
increase in fluorescence intensity with peroxynitrite ([6]; peroxynitrite 0, 20, 60, 100, 200, 240 and 300 μM): great increase
relationship of fluorescence intensity with the concentration of ONOO− ([6]; peroxynitrite 0-300 μM): good linear relationship
changes in fluorescence intensity before and after the treatment, •OH [7]: 2%
changes in fluorescence intensity before and after the treatment, SIN-1 [8]: 166%
change in fluorescence intensity after reaction with ONOO− [9]: Dramatic increase
